According to patent publication US5189212A, “Triarylethylene carboxylic acids with estrogenic activity” (University of Georgia Research Foundation, Inc., priority 1990, dated 1993):
“Also recorded” adds a separate entry of the source.

Assays:
estrogen receptor = target: T1, estrogen receptor (Rattus norvegicus, UniProt P06211); experiment: Estrogen receptor affinity: competition with [3H]estradiol binding in rat uterine cytosol; settings: for estrogen receptor affinity relative to estradiol (affinity=100): estradiol = 100
T1 construct: Uteri from Sprague-Dawley rats (200-250g) are homogenized; from tissue; host or cells: rat uterus, 100000g supernatant (cytosol), Sprague-Dawley
T1 sequence (P06211 1-600): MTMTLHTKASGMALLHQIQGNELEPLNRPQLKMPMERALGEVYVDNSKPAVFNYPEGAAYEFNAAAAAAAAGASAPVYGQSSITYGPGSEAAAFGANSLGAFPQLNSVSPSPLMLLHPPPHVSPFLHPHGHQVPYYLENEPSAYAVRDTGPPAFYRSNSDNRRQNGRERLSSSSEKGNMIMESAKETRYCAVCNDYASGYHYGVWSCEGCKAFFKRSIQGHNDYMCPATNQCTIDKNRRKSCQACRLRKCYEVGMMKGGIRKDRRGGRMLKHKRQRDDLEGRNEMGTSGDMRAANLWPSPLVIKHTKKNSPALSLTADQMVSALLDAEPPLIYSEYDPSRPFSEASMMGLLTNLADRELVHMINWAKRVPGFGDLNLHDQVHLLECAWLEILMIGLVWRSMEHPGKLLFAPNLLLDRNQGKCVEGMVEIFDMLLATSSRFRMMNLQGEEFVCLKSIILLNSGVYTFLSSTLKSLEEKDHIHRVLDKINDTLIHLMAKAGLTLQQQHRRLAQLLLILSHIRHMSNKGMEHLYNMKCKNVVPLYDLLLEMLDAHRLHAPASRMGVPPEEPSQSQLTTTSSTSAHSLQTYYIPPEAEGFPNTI
Protocol: The estrogen receptor affinity of the triarylethylenes of Formula I can be measured according to the method of Ruenitz, et.al., J. Med. Chem., 25:1056, (1982).
[^3 H]Estradiol (58 Ci/mmol) can be obtained from Amersham Corp., and its radiochemical purity checked by TLC. Uteri from Sprague-Dawley rats (200-250g) are homogenized (1 uterus/2 mL) in ice-cold 10 mM Tris buffer, pH 7.4, that contains 1.5 mM EDTA and 3 mM sodium azide (TEA buffer). The homogenate is centrifuged at 100000g for 1 hour at 4° C. Incubation mixtures should contain 200-μμL aliquots of the supernatant, and 10 μL of a solution of 1.1×10^-7 M [^3 H]estradiol in dimethylacetamide, and 10 μL unlabeled competitor in dimethylacetamide. Ten concentrations of competitor are used ranging from 1×10^-9 to 5×10^-5 M. Control incubations should contain 10 μL of solvent alone. Nonspeoifio binding is determined in similarly prepared incubations that contain 1×10^-5 M estradiol. Incubations should be performed in triplicate, in 5-mL polypropylene centrifuge tubes, at 2°- 4° C. for 4 hours. Then a suspension of 400 μL of dextran-coated charcoal [0.1% dextran (Sigma no. D-1390), 1% acid-washed Norit A in TEA buffer]is added, and the incubation continues for 15 minutes at 2°-4° C. Tubes are then centrifuged at 1000g for 10 minutes, and 400-μL aliquots are dissolved in 5 mL of Scintivense (Fisher), Bound [^3 H]estradiol is determined by liquid scintillation spectrometry. Quench corrections are made by the external standard method.
The estrogen receptor affinity of 4-hydroxy tamoxifen acid was measured according to the assay described in Example 2. FIG. 2 is a graph of the effect of increasing concentrations (nM) of 4-HTA (--.quadrature.--), estradiol (--O--), and TA (-- --) on the binding of [^3 H]estradiol in uterine cytosol from immature rats. Specifically bound ^3 H from [^3 H]estradiol is plotted as a percentage of that bound in control incubations in the absence of 4-HTA, estradiol, or TA. Estradiol and tamoxifen, the non-hydroxylated analog of 4-HTA, were used as standards.

MCF7 breast cancer cells = experiment: Reversal of the inhibitory effect of tamoxifen on MCF 7 cell growth; format: cell-based, human; settings: 1 μM tamoxifen, FIG. 4
Protocol: Cells were grown as summarized in Example 4 and tamoxifen was added to flasks as a solution in DMSO […], as were increasing concentrations of TA or 4-HTA.

MCF 7 cells = experiment: Stimulation of MCF 7 cell proliferation in estrogen free medium; format: cell-based, human; settings: nine days, FIG. 5
Protocol: Cells were conditioned as described in Example 2, and then withdrawn from estrogen stimulation and incubated with phenol red free medium prepared with charcoal-stripped fetal calf serum. After five days, medium was changed and 4-HTA or estradiol were added as described in Example 2. After nine days, cell numbers were determined.
Each point is the average of 3-6 determinations. […] These findings indicate that 4-HTA is a pure estrogen with no residual estrogen antagonist activity.

[1] = Distribution and elimination of TA and 4-HTA after intraperitoneal [14C]TAM in immature female rats; format: in vivo, rat; settings: for Percent of Dose Present as: Total 14C: i.p. [14C]TAM, rat, values ±5%
Protocol: Animals and Dosing. Female Sprague-Dawley rats, 45-55 grams each, were maintained on a normal laboratory diet and were divided into groups of four to six per experiment. […] This solution was prepared by dissolving the drug in 10 ml of 1% citric acid in N,N-dimethylacetamide and diluting the solution with 0.2 ml of 1.15% aqueous KCl just before use. Animals were housed in polycarbonate metabolism cages equipped for separate collection of urine and feces.
Processing of Biological Samples. At 24 and 48 hours after dosing, animals were killed by decapitation. Uteri and livers were removed and weights were recorded. Pooled uteri, and livers were homogenized in 10 volumes of methanol. Each homogenate was centrifuged at 400×g for 10 min. Triplicate 1.0 ml aliquots of supernatants were counted for radioactivity in 8 ml of Ecoscint (National Diagnostics, Somerville, N.J.). Collected urine was lyophilized. The residue was sonicated in methanol, and the mixture was filtered and the solid residue was washed with methanol to make the final volume equal to the original urine volume. This procedure removed endogenous polar materials with no loss of radioactivity. Feces collected 24 and 48 hr after dosing were homogenized in 10 volumes of methanol. The homogenate was centrifuged and analyzed for radioactivity as described above.
Extraction and Analysis. Unlabelled TA and 4-HTA […] were added as standards to methanol extracts of tissues, urine, and feces. A third standard, TA glyOH, was added only to the urine extract. Each solution was then concentrated under a stream of N2. To each residue was added 0.5 ml of 1% aqueous NaOH. The resulting mixture (pH≥11) was extracted serially two times with 1.0 ml portions of ether. Radioactivity present in these extracts was determined. To the aqueous phase was added 0.1 ml of 10% HCl, and the mixture (pH≤1) was extracted as before. Radioactivity was determined in some of these extracts. Otherwise, they were concentrated under a stream of N2. Each residue was dissolved in […] of acetone and the solution was applied to a TLC plate. Developed plates were segmented using the locations of reference compounds under UV light of 254 nm wavelength for guidance. Radioactivity was determined in segments containing reference compounds, and in some cases in all segments from TLC plates.
The specific activity of TA and 4-HTA eluted from developed chromatograms was determined by immersion of the segments containing these metabolites in a solution of 2.8% ammonia in methanol for 12 hr. Radioactivity in aliquots of eluates was determined, and quantities of TA and 4-HTA were estimated from absorbance of solutions at 283 nm using e283 =1.2×10^4 M^-1 cm-^-1 for each compound. Subsequent processing of eluates was conducted according to methods known in the art.

[2] = test system: UDP glucuronyl transferase; experiment: Rat liver microsomal glucuronidation; settings: for Vmax: detergent-activated rat liver microsomes, 37° C., 30 min, average of two to three experiments; for substrate for UDP glucuronyl transferase: rat liver microsomes, in vitro
[3] = test system: MCF 7 human breast cancer cells; experiment: Effect on proliferation of MCF 7 cells grown in the presence of estrogens; settings: cell numbers after five days, FIG. 3
Protocol: The antiestrogenic effect of the nonsteroidal triarylethylene compounds of Formula I is measured by comparing the growth of MCF7 breast cancer cells in the presence and absence of the compounds, according to the method described below for 4-hydroxy tamoxifen acid.
Cell numbers were determined five days later, after approximately four population doublings in drug free controls. Data shown are expressed as percentages of cell numbers in control flasks and are averages of six estimates from two separate experiments.

[4] = Rat liver microsomal glucuronidation; settings: rat, liver microsomes
[5] = test system: UDP glucuronyl transferase; settings: rat, microsomes, 0.5 h

| Compound | estrogen receptor affinity relative to estradiol (affinity=100) (estrogen receptor) | reversal of the growth inhibitory effect of TAM on MCF 7 cells (MCF7 breast cancer cells) | Vmax [2] | substrate for UDP glucuronyl transferase [2] | inhibition of growth/proliferation of MCF 7 human breast cancer cells [3] | Km at 0.5 h [4] | further results |
| --- | --- | --- | --- | --- | --- | --- | --- |
| CCC(=C(c1ccc(O)cc1)c1ccc(OCC(=O)O)cc1)c1ccccc1 [4-HTA, (E,Z)-2-{4-[1-(p-hydroxyphenyl)-2-phenyl]-1-butenyl}phenoxyacetic acid] | 21 | both compounds reverse the growth inhibitory effect; also recorded: reversed in a dose dependent manner | 0.0 nmols/mg-min | not a substrate | Neither tamoxifen acid nor 4-HTA inhibits the growth; also recorded: no effect on proliferation |  | estrogen receptor affinity as percent of that of estradiol (estrogen receptor; [3H]estradiol, uterine cytosol from immature rats, FIG. 2): 21%; maximal level of MCF 7 growth stimulation compared with estradiol (MCF 7 cells): stimulated growth to the same level as did estradiol; stimulation of MCF 7 cell growth (MCF 7 cells; submicromolar concentrations): dose dependent stimulation of growth; urinary elimination form ([1]; immature female rat): eliminated unchanged in the urine; presence in uterine or ovarian tissue ([1]; immature female rat, after [14C]TAM): not detected in uterine or ovarian tissue |
| CCC(=C(c1ccccc1)c1ccc(OCC(=O)O)cc1)c1ccccc1 [TA, (E,Z)-4-(1,2-diphenyl-1-butenyl)phenoxyacetic acid] | 0.01 | to a lesser extent | 0.0 nmols/mg-min |  | Neither tamoxifen acid nor 4-HTA inhibits the growth |  | binding to the estrogen receptor (estrogen receptor; FIG. 2): also binds to the estrogen receptor; reversal of the growth inhibitory effect of TAM on MCF 7 cells (MCF7 breast cancer cells; listed as tamoxifen acid): both compounds reverse the growth inhibitory effect |
| CCC(=C(c1ccc(O)cc1)c1ccc(O)cc1)c1ccccc1 [TAM bis-phenol, 1,1-bis-(4-hydroxyphenyl)-2-phenyl-1-butene] |  |  | 14.7 nmols/mg-min |  |  | 54 µM |  |
| 4-hydroxytamoxifen [4-HT] |  |  | 7.4 nmols/mg-min |  |  |  | Km [5]: 83 µM |
| CCC(=C(c1ccc(O)cc1)c1ccc(OCC(=O)OC)cc1)c1ccccc1 [Methyl 4-HTA] |  |  | 16.5 nmols/mg-min | excellent substrate |  | 73 µM |  |
| CC/C(=C(\c1ccccc1)c1ccc(OCCN(C)C)cc1)c1ccccc1 [TAM, (Z)-2-[4-(1,2-diphenyl-1-butenyl)phenoxy]-N,N-dimethylethanamine] |  |  |  |  | potent inhibitor of cell growth |  | Percent of Dose Present as: Total 14C ([1]; feces, 0-24 hr after dosing): 30.49%; Percent of Dose Present as: Total 14C ([1]; feces, 24-48 hr after dosing): 16.05%; Percent of Dose Present as: Total 14C ([1]; liver, 24 hr after dosing): 20.25%; Percent of Dose Present as: Total 14C ([1]; liver, 48 hr after dosing): 2.84%; Percent of Dose Present as: Total 14C ([1]; urine, 0-24 hr after dosing): 8.70%; Percent of Dose Present as: Total 14C ([1]; uterus, 24 hr after dosing): 0.12% |
